What was measured:
Assay in all cases: Enzymatic kinase assay (filter-binding / flashplate, 33P incorporation)
Format in all cases: biochemical
Conditions in all cases: enzymatic kinase selectivity
[1] = molecular target: cKIT (Homo sapiens, UniProt P10721)
Protocol: (§1) Two methods were used to analyze phosphorylated peptides and proteins produced by the listed tyrosine and serine/threonine-specific protein kinases: either using a filter-binding assay (FB), or using a flashplate assay (FP). The activities of protein kinases were assayed in the presence or absence of inhibitors, by measuring the incorporation of ^33P from [γ^33P]ATP into appropriate substrates.
(§2) 96-well polypropylene microplates were used to assay the activity in the FB mode. To determine the inhibitory activity of compounds 10 μL of compound dilutions were pipetted into 96-well plates followed by the addition of 10 μL of assay mix and 10 μL of individual enzymes. With the addition of the enzymes the reactions were initiated and continued at RT. The reactions were stopped by the addition of 50 μL of a 125 mM EDTA solution pH 8.0. The final concentration of DMSO in the enzyme assays was 1%.
(§3) Flashplates are available as 96-well standard (STFPs) or as streptavidin-(SAFPs) or nickel coated FPs (NiFPs) from Perkin Elmer. STFPs are 96-well polystyrene microplates in which the interior of each well is permanently coated with a thin layer of polystyrene-based scintillant. Streptavidin flashplates (SAFP) are 96 or 384-well STFPs coated with streptavidin. SAFPs are suitable for a wide variety of assay applications which utilize biotinylated capture molecules. NiFP or nickel chelate flashplates are 96- or 384-well STFPs coated with nickel chelate. NiFPs are designed for in-plate, radiometric assays which utilize 4- or 6-histidine tagged proteins and peptides.
(§4) All kinase assays were performed in STFPs for 60 mins at RT and stopped with 50 μL of 0.5% H3PO4 except PKA which were carried out in polypropylene 96- and 384-well plates, respectively. PKA assays were stopped with 50 μL of 125 mM EDTA (pH 8.0) and 50 μL were transferred to either SAFPs or NIFPs to capture the biotinylated or histidine tagged peptides phosphorylated by PKA (SAFP) or by NiFPs. All wells were then washed three times with 200 μL of 0.5% H3PO4 and the plates were dried at room temperature. The plates were sealed and counted in a microplate scintillation counter (TopCount NXT, TopCount NXT HTS). The final concentration of DMSO in the enzyme assays was 1%.

[2] = molecular target: cABLT315 (Homo sapiens, UniProt P00519, T315I)
Protocol: as §1, §2, §3, §4

[3] = molecular target: EphA4 (Homo sapiens, UniProt P54764)
Protocol: as §1, §2, §3, §4

[4] = molecular target: KDR (Homo sapiens, UniProt P35968)
Protocol: as §1, §2, §3, §4

[5] = molecular target: cMET (Homo sapiens, UniProt P08581)
Protocol: as §1, §2, §3, §4

[6] = molecular target: JAK2 (Homo sapiens, UniProt O60674)
Protocol: as §1, §2, §3, §4

[7] = molecular target: GSK3beta (Homo sapiens, UniProt P49841)
Protocol: as §1, §2, §3, §4

[8] = molecular target: IGF1R (Homo sapiens, UniProt P08069)
Protocol: as §1, §2, §3, §4

[9] = molecular target: InsR (Homo sapiens, UniProt P06213)
Protocol: as §1, §2, §3, §4

[10] = molecular target: HER2 (Homo sapiens, UniProt P04626)
Protocol: as §1, §2, §3, §4

[11] = molecular target: RET (Homo sapiens, UniProt P07949)
Protocol: as §1, §2, §3, §4

[12] = molecular target: ERK2 (Homo sapiens, UniProt P28482)
Protocol: as §1, §2, §3, §4

[13] = molecular target: T1, Aurora A (Homo sapiens, UniProt O14965)
T1 sequence (O14965 1-403): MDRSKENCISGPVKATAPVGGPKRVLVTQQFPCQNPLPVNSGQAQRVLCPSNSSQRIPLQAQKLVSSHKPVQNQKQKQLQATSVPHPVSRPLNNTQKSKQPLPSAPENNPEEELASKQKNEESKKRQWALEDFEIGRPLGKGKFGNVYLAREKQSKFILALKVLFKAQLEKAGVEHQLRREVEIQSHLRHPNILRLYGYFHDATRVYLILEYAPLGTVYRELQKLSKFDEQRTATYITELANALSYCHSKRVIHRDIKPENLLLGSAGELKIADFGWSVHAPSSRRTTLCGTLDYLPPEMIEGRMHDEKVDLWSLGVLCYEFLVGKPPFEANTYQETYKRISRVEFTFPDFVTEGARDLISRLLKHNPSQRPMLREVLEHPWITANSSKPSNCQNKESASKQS
Protocol: as §1, §2, §3, §4

[14] = molecular target: LCK (Homo sapiens, UniProt P06239)
Protocol: as §1, §2, §3, §4

[15] = molecular target: MK2 (Homo sapiens, UniProt P49137)
Protocol: as §1, §2, §3, §4

[16] = molecular target: CDK2A (Homo sapiens, UniProt P24941)
Protocol: as §1, §2, §3, §4

[17] = molecular target: TYK2 (Homo sapiens, UniProt P29597)
Protocol: as §1, §2, §3, §4

[18] = molecular target: PDGFRa (Homo sapiens, UniProt P16234)
Protocol: as §1, §2, §3, §4

cKIT, sequence (P10721 26-976): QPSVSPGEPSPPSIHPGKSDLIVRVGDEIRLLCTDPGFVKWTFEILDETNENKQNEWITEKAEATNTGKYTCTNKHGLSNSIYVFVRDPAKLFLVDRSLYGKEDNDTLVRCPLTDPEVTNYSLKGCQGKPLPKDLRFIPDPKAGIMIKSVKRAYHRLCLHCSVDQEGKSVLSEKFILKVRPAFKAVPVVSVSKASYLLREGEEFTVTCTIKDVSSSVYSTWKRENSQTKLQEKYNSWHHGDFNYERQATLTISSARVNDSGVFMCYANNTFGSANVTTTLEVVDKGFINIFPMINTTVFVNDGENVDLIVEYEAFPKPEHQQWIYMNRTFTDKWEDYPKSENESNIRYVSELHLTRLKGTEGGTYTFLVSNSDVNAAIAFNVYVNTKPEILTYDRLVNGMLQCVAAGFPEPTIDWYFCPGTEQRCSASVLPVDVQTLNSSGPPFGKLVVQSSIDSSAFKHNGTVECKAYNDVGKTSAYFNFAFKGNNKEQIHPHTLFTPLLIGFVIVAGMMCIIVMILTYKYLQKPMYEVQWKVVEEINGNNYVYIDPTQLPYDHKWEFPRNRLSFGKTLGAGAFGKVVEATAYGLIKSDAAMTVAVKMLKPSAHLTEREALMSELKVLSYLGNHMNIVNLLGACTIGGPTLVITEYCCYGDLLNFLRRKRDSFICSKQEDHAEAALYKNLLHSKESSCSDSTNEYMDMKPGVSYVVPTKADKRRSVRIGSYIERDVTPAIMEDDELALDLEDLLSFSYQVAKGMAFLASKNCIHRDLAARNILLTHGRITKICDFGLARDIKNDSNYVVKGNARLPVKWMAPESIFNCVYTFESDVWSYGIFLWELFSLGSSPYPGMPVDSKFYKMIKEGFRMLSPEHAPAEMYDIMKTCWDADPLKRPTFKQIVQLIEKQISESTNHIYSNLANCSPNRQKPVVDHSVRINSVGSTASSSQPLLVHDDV
HER2, sequence (P04626 23-1255, species assumed): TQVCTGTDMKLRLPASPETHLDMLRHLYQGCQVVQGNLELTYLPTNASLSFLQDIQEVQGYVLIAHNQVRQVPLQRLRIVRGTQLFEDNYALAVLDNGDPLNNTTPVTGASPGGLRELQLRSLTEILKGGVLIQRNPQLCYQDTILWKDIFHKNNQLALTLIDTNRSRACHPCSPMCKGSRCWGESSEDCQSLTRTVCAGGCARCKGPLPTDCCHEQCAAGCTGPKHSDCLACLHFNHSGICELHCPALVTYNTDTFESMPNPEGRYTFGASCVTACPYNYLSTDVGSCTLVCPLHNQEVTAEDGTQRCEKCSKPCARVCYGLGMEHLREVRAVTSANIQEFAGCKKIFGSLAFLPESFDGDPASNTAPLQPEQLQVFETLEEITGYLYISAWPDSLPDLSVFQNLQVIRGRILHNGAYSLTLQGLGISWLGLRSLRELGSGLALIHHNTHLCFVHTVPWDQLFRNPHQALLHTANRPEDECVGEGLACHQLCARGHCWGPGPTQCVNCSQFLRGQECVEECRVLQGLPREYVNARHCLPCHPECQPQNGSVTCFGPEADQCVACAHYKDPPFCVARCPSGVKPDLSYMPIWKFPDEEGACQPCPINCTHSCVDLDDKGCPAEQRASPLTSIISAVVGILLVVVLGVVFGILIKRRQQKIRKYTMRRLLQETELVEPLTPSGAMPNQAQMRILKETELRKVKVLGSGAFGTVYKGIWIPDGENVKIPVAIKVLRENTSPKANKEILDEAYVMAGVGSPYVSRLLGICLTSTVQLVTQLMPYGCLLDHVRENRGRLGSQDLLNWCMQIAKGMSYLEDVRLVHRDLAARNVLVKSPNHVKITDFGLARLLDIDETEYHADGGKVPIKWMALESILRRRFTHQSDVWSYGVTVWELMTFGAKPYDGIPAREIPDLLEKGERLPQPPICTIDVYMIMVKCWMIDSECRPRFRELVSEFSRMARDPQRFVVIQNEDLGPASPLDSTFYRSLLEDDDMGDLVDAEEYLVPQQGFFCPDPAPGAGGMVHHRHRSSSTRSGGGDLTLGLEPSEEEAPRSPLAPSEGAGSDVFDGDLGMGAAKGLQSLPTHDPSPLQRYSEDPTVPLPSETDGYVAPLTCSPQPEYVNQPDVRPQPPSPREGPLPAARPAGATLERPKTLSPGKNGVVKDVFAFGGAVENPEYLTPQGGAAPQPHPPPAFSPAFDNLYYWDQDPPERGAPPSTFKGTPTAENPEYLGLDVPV
GSK3beta, sequence (P49841 whole entry, species assumed): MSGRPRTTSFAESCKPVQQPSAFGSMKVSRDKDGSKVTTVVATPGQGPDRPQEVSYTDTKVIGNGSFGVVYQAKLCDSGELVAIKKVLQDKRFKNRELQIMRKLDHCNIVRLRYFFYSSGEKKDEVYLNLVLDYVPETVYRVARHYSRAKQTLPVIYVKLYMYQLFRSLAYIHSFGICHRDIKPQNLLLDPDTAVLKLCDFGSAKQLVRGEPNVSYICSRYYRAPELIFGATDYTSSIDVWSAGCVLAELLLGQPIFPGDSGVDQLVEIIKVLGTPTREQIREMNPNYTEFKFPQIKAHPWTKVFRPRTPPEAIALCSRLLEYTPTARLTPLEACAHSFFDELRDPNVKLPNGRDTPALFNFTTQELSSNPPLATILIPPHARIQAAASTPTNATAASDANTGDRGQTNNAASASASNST
LCK, sequence (P06239 whole entry, species assumed): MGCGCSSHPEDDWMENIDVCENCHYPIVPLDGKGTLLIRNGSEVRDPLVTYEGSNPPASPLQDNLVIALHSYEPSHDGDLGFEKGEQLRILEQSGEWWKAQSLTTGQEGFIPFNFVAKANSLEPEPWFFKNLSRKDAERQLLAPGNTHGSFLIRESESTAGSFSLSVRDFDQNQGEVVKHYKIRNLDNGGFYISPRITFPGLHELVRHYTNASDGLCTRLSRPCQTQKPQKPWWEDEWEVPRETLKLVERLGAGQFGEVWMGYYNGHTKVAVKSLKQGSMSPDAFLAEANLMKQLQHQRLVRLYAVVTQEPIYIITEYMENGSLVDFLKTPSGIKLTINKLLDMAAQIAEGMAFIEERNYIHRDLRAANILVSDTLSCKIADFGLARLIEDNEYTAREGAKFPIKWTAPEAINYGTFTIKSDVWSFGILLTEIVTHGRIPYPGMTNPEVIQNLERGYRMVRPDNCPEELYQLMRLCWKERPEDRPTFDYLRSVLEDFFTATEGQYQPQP
ERK2, sequence (P28482 whole entry, species assumed): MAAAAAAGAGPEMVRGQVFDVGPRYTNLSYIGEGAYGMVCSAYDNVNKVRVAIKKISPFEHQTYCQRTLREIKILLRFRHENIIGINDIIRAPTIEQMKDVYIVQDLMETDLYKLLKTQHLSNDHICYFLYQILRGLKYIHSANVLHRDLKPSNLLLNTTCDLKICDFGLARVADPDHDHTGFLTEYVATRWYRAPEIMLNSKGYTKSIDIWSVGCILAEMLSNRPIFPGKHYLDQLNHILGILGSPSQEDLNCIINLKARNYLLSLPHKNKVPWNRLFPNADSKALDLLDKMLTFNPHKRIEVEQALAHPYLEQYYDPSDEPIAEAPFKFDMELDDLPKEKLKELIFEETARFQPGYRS
cMET, sequence (P08581 25-1390): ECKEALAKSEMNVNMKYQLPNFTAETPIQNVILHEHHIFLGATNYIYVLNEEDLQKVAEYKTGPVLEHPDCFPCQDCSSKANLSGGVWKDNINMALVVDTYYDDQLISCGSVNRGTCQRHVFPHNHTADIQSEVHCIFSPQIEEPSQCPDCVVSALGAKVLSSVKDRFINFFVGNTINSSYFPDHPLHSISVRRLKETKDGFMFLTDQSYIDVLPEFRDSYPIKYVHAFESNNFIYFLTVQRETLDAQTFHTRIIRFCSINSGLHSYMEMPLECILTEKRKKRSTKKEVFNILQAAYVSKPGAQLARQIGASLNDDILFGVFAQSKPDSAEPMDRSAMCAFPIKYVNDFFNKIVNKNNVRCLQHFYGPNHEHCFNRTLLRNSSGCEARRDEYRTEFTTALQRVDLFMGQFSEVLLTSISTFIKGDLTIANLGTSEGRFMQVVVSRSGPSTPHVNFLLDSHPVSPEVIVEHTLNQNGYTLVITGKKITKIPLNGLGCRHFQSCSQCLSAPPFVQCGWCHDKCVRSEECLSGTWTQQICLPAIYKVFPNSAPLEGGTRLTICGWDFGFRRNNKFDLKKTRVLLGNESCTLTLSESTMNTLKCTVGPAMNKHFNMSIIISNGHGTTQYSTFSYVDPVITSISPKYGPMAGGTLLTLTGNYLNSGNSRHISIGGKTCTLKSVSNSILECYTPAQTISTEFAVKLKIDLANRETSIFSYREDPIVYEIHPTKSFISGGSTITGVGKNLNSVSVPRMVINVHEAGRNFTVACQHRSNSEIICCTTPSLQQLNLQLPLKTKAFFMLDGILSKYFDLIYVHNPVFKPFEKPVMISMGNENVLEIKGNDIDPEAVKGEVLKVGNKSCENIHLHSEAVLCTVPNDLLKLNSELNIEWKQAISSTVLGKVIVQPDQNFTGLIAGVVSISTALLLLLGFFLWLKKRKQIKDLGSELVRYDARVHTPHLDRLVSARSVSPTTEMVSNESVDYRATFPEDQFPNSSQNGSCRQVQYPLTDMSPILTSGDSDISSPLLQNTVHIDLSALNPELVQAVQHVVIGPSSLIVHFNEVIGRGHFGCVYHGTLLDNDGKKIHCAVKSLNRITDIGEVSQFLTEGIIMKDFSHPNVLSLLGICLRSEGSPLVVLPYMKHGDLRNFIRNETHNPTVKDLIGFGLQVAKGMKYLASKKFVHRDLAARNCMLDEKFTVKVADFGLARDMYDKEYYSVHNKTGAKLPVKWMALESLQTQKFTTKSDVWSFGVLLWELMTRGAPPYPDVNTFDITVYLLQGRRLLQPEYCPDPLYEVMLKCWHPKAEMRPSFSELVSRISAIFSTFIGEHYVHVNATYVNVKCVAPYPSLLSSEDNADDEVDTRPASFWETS

SMILES	IC50 [1]	IC50 [2]	IC50 [3]	IC50 [4]	IC50 [5]	IC50 [6]	IC50 [7]	IC50 [8]	IC50 [9]	IC50 [10]	IC50 [11]	IC50 [12]	IC50 [13]	IC50 [14]	IC50 [15]	IC50 [16]	IC50 [17]	IC50 [18]
CC(=O)NC[C@H]1C[C@@H](n2cc(-c3ccc4c(c3)OC(c3ccccc3)CC4)c3c(N)ncnc32)C1 (mixture of isomers) [Example 16, (R,S)—N-{cis-3-[4-Amino-5-(2-phenyl-chroman-7-yl)-pyrrolo[2,3-d]pyrimidin-7-yl]-cyclobutylmethyl}-acetamide]	3200 nM	8000 nM	> 10000 nM	160 nM	> 10000 nM	> 10000 nM	> 10000 nM	50 nM	780 nM	> 10000 nM	360 nM	> 10000 nM	4300 nM	4460 nM	> 10000 nM	> 10000 nM	> 10000 nM	1200 nM
Nc1ncnc2c1c(-c1ccc3c(c1)OC(c1ccccc1)CC3)cn2C1CC(O)(CO)C1 (single isomer, unassigned) [Example 26]	> 10000 nM	4350 nM	> 10000 nM	250 nM	> 10000 nM	> 10000 nM	> 10000 nM	58 nM	1450 nM	> 10000 nM	760 nM	> 10000 nM	8800 nM	6150 nM	> 10000 nM	> 10000 nM	> 10000 nM	> 10000 nM
CC(=O)N1CCN([C@H]2C[C@@H](n3cc(-c4ccc5c(c4)OC(c4ccccc4)CC5)c4c(N)ncnc43)C2)CC1 (relative stereo) [Example 38, 1-(4-{cis-3-[4-Amino-5-(2-phenyl-chroman-7-yl)-pyrrolo[2,3-d]pyrimidin-7-yl]-cyclobutyl}-piperazin-1-yl)-ethanone]	6000 nM	> 10000 nM	> 10000 nM	240 nM	> 10000 nM	> 10000 nM	> 10000 nM	17 nM	100 nM	> 10000 nM	410 nM	> 10000 nM	> 10000 nM	3800 nM	> 10000 nM	> 10000 nM	> 10000 nM	> 10000 nM
Nc1ncnc2c1c(-c1ccc3c(c1)OC(c1ccccc1)C=C3)cn2[C@H]1C[C@@H](CN2CCS(=O)(=O)CC2)C1 (mixture of isomers) [Example 21, (R,S)-7-[cis-3-(1,1-Dioxo-1-thiomorpholin-4-ylmethyl)-cyclobutyl]-5-(2-phenyl-2H-chromen-7-yl)-7H-pyrrolo[2,3-d]pyrimidin-4-ylamine]	770 nM	> 10000 nM	> 10000 nM	110 nM	> 10000 nM	> 10000 nM	> 10000 nM	7.8 nM	73 nM	> 10000 nM	25 nM	> 10000 nM	4000 nM	3600 nM	> 10000 nM	> 10000 nM	> 10000 nM	770 nM

Reference: US20120289501A1, “Benzene-fused 6-membered oxygen-containing heterocyclic derivatives of bicyclic heteroaryls” (NOVARTIS AG, priority 2009, published 2012)
